Data on four compounds can be found in article PMC10814857, “Functional Classification and Interaction Selectivity Landscape of the Human SH3 Domain Superfamily” (Cells, 2024).

In general, Kd refers to the constant that tells how readily two partners part at equilibrium. Higher therefore signals lower affinity.

Common to all, as to test: Fluorescence polarization SH3 domain-PRP binding
What all share (conditions): FP, 0.2 µM fluorescein-labeled peptide, SH3 domain 0-200 µM, Tris/HCl pH 7.5, 25 °C, quadratic fit

For assay [1], the target named is T1, DLG2 SH3 domain (aa 536-606) (Homo sapiens, UniProt Q15700).
T1 construct: 536-606; GST (N); made in house; host or cells: Escherichia coli CodonPlus, Rosetta, BL21(DE3)
T1 sequence (Q15700 536-606): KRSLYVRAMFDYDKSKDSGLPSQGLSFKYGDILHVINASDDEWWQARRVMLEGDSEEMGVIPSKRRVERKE
As to the method: (§1) The interaction between fluorescein-labeled proline-rich peptides (0.2 µM) and increasing concentrations of SH3 domains (ranging from 0 to 200 µM) was measured in a buffer (containing 30 mM Tris/HCl (pH 7.5), 5 mM MgCl2, and 3 mM DTT at 25 °C) in a total volume of 200 µL using a Fluoromax 4 fluorimeter in polarization mode and a quartz glass fluorescence cuvette (Hellma Ultra-Micro Cuvette 105.250-QS, Thermo Fisher Scientific, Waltham, MA USA). Excitation was performed at 470 nm and emission was measured at 560 nm. Dissociation constants (Kd) were determined by fitting the concentration-dependent binding curve to a quadratic ligand binding equation.
(§2) Fluorescence polarization measurements were performed to determine the binding affinities of SH3 domain–PRP interaction pairs from the dot blot analysis. SH3 proteins were titrated at increasing concentrations against fluorescent PRPs, which were kept at a constant concentration of 0.2 µM. GRB2-2^W193K, which is defective in the binding of PRPs such as RP1, was used as a negative control as previously described. […] The resulting data (Figure S6) allowed the evaluation of equilibrium dissociation constants (Kd) for 45 interactions between the SH3 domains and the PRPs (Figure 2B; Table S6).
(§3) Figure S6. Interactions of the SH3 domains with fluorescent PRPs measured by fluorescence polarization.
(§4) Fluorescent peptides (0.2 µM) were titrated with increasing concentrations of the corresponding SH3 domains.
(§5) GRB2-2W193K, defective in the binding of PRPs such as RP1, was used as a negative control as previously described. The x-axis represents SH3 domain concentrations as GST fusion proteins in µM, while the y-axis represents fluorescence polarization. The equilibrium dissociation constants (Kd) for the respective measurements were determined by fitting the titration curves to a quadratic ligand-binding equation (solid lines). All Kd values are […]
(§6) Error bars are derived from the fitting errors.
(§7) (1 picture or pasted object on this page, not shown here)

The target in assay [2] is T2, ABI1 SH3 domain (aa 446-505) (Homo sapiens, UniProt Q8IZP0).
T2 construct: 446-505; GST (N); made in house; host or cells: Escherichia coli CodonPlus, Rosetta, BL21(DE3)
As to the method:
as §1, §2, §3, §4, §5, §6, §7

For assay [3], the target named is T3, ITSN1-2 SH3 domain (aa 913-971) (Homo sapiens, UniProt Q15811).
T3 construct: 913-971; GST (N); made in house; host or cells: Escherichia coli CodonPlus, Rosetta, BL21(DE3)
T3 sequence (Q15811 913-971): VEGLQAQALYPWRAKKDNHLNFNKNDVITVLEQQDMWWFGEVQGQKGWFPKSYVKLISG
As to the method: as §1, §2, §3, §4, §5, §6, §7

In assay [4] the target is T4, ABL2 SH3 domain (aa 107-167) (Homo sapiens, UniProt P42684).
T4 construct: 107-167; GST (N); made in house; host or cells: Escherichia coli CodonPlus, Rosetta, BL21(DE3)
On the procedure: as §1, §2, §3, §4, §5, §6, §7

In assay [5] the target is T5, BIN1 SH3 domain (aa 520-593) (Homo sapiens, UniProt O00499).
T5 construct: 520-593; GST (N); made in house; host or cells: Escherichia coli CodonPlus, Rosetta, BL21(DE3)
T5 sequence (O00499 520-593): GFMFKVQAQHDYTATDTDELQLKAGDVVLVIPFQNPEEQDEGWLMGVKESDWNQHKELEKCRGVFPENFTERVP
On the procedure:
as §1, §2, §3, §4, §5, §6, §7

The target of assay [6] is T6, GRB2-1 SH3 domain (aa 1-58) (Homo sapiens, UniProt P62993).
T6 construct: 1-58; GST (N); made in house; host or cells: Escherichia coli CodonPlus, Rosetta, BL21(DE3)
On the procedure: as §1, §2, §3, §4, §5, §6, §7

The target of assay [7] is T7, CRK-1 SH3 domain (aa 132-192) (Homo sapiens, UniProt P46108).
T7 construct: 132-192; GST (N); made in house; host or cells: Escherichia coli CodonPlus, Rosetta, BL21(DE3)
As to the method: as §1, §2, §3, §4, §5, §6, §7

Assay [8] addresses T8, ARHGAP12 SH3 domain (aa 12-74) (Homo sapiens, UniProt Q8IWW6).
T8 construct: 12-74; GST (N); made in house; host or cells: Escherichia coli CodonPlus, Rosetta, BL21(DE3)
T8 sequence (Q8IWW6 12-74): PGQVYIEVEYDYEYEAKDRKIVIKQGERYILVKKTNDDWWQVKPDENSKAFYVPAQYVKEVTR
On the procedure:
as §1, §2, §3, §4, §5, §6, §7

Assay [9] deals with T9, ITSN1-3 SH3 domain (aa 1002-1060) (Homo sapiens, UniProt Q15811).
T9 construct: 1002-1060; GST (N); made in house; host or cells: Escherichia coli CodonPlus, Rosetta, BL21(DE3)
T9 sequence (Q15811 1002-1060): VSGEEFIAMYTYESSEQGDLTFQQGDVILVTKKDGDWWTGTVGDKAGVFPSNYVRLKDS
As to the method:
as §1, §2, §3, §4, §5, §6, §7

Assay [10] has as its target T10, ITSN1-1 SH3 domain (aa 740-806) (Homo sapiens, UniProt Q15811).
T10 construct: 740-806; GST (N); made in house; host or cells: Escherichia coli CodonPlus, Rosetta, BL21(DE3)
T10 sequence (Q15811 740-806): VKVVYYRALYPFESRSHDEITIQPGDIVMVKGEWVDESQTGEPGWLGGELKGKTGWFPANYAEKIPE
As to the method: as §1, §2, §3, §4, §5, §6, §7

The target of assay [11] is T11, ARHGEF30 (OBSCN) SH3 domain (aa 5600-5667) (Homo sapiens, UniProt Q5VST9).
T11 construct: 5600-5667; GST (N); made in house; host or cells: Escherichia coli CodonPlus, Rosetta, BL21(DE3)
T11 sequence (Q5VST9 5600-5667): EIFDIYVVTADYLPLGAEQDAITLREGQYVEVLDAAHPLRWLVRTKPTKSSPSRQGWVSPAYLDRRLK
As to the method:
as §1, §2, §3, §4, §5, §6, §7

Assay [12] deals with T12, SH3PXD2A-1 SH3 domain (aa 166-225) (Homo sapiens, UniProt Q5TCZ1).
T12 construct: 166-225; GST (N); made in house; host or cells: Escherichia coli CodonPlus, Rosetta, BL21(DE3)
T12 sequence (Q5TCZ1 166-225): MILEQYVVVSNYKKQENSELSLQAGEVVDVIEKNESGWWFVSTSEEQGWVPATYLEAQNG
Put shortly:
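FP titration: 0.2 µM fluorescent PRP + GST-SH3 0–200 µM; 30 mM Tris/HCl pH 7.5, 5 mM MgCl2, 3 mM DTT, 25 °C. Ex 470/em 560 nm. Kd by quadratic binding-equation fit; errors from fitting.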

Molecules are shown by their SMILES. Peptide text beside a SMILES is read from it.

T2 sequence (Q8IZP0 446-505): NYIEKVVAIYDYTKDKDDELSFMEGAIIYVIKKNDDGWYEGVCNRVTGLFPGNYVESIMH
T6 sequence (P62993 1-58): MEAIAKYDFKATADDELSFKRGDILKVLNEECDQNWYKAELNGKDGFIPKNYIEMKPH
T7 sequence (P46108 132-192): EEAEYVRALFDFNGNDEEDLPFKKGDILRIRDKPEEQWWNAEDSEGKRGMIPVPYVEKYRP
T4 sequence (P42684 107-167): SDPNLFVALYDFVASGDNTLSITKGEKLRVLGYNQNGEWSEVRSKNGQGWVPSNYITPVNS

`CC[C@H](C)[C@H](NC(=O)[C@H](CCCCN)NC(=O)[C@H](CO)NC(=O)[C@@H]1CCCN1C(=O)[C@H](CO)NC(=O)[C@H](CO)NC(=O)[C@H](CCC(=O)O)NC(=O)[C@H](C)NC(=O)[C@@H]1CCCN1C(=O)[C@H](C)NC(=O)[C@H](CO)NC(=O)[C@H](CCC(=O)O)NC(=O)[C@@H]1CCCN1C(=O)[C@H](CCCNC(=N)N)NC(=O)[C@H](CCCNC(=N)N)NC(=O)[C@H](CCCNC(=N)N)NC(=O)[C@@H]1CCCN1C(=O)[C@@H]1CCCN1C(=O)[C@@H](NC(=O)[C@@H]1CCCN1C(=O)[C@@H]1CCCN1C(=O)[C@@H]1CCCN1C(=O)[C@@H](NC(=O)[C@@H]1CCCN1C(=O)[C@@H](NC(=O)[C@@H](N)CCC(=O)O)C(C)C)C(C)C)C(C)C)C(=O)O` [Peptide P3] (H-EVPVPPPVPPRRRPESAPAESSPSKI-OH): the Kd in assay [1] was more than 200 µM; in assay [2] it was more than 200 µM; in assay [3], more than 200 µM; in [4] it was more than 200 µM; in assay [5], more than 200 µM; in [6], 15 µM. Further, the dissociation constant (Kd) in [7] is 12.9 µM; in [8] it was 13.8 µM; in assay [9], more than 200 µM; in assay [10] it was more than 200 µM; in assay [11] it was more than 200 µM; in [12], 18 µM.
Regarding `CC[C@H](C)[C@H](NC(=O)[C@H](C)NC(=O)[C@@H]1CCCN1C(=O)[C@@H]1CCCN1C(=O)[C@H](CO)NC(=O)[C@H](CC(=O)O)NC(=O)[C@@H](N)CC(C)C)C(=O)N1CCC[C@H]1C(=O)N1CCC[C@H]1C(=O)N[C@@H](CCCNC(=N)N)C(=O)N[C@@H](CCC(N)=O)C(=O)N1CCC[C@H]1C(=O)N[C@H](C(=O)N[C@@H](CO)C(=O)N[C@@H](CCCCN)C(=O)O)[C@@H](C)O` [Peptide P4] (H-LDSPPAIPPRQPTSK-OH), the Kd was more than 200 µM in assay [1]; 24.6 µM in [2]; more than 200 µM in assay [3]; 125 µM in assay [4]; more than 200 µM in assay [5]; 60 µM in [6]. In addition, the Kd in assay [7] was more than 200 µM; in assay [8], more than 200 µM; in assay [9] it was more than 200 µM; in [10], 6.6 µM; in [11], more than 200 µM; in [12], more than 200 µM.
Take `CC[C@H](C)[C@H](N)C(=O)N[C@@H](C)C(=O)NCC(=O)N1CCC[C@H]1C(=O)N1CCC[C@H]1C(=O)N[C@H](C(=O)N1CCC[C@H]1C(=O)N1CCC[C@H]1C(=O)N[C@@H](CCCNC(=N)N)C(=O)N[C@@H](CCC(N)=O)C(=O)N[C@@H](CO)C(=O)O)C(C)C` [Peptide P9] (H-IAGPPVPPRQS-OH): the Kd is more than 200 µM in assay [1]; more than 200 µM in assay [2]; more than 200 µM in assay [3]; more than 200 µM in assay [4]; 47 µM in [5]; more than 200 µM in [6]. Besides, the Kd in assay [7], in assay [8], in assay [9], in [10], in assay [11] and in assay [12] was more than 200 µM throughout.
With `CC(C)C[C@H](NC(=O)[C@H](Cc1c[nH]cn1)NC(=O)[C@H](CC(C)C)NC(=O)[C@@H]1CCCN1C(=O)[C@H](CO)NC(=O)[C@H](CO)NC(=O)[C@@H](N)CO)C(=O)N[C@@H](CCC(N)=O)C(=O)N1CCC[C@H]1C(=O)N1CCC[C@H]1C(=O)N1CCC[C@H]1C(=O)N[C@@H](CC(C)C)C(=O)NCC(=O)N[C@@H](CCCCN)C(=O)N[C@@H](CCCCN)C(=O)O` [Peptide P6] (H-SSSPLHLQPPPLGKK-OH; N-terminus and C-terminus assumed), the dissociation constant (Kd) in assay [1], in assay [2], in [3], in assay [4], in assay [5] and in assay [6] was more than 200 µM each time. Further, the Kd in assay [7], in assay [8], in assay [9], in assay [10], in assay [11] and in assay [12] was more than 200 µM in each case.
